One assay addresses T1, human PRMT1 (Homo sapiens, UniProt Q99873).
T1 construct: GST-tagged PRMT1; made in house; host or cells: High Five insect cells (baculovirus)
As to the kind of experiment: PRMT1 Biochemical Assay (3H-SAM Flashplate, peptide substrate). The following applies: single experiment or average of multiple experiments. From the text: S-adenosylmethionine (SAM), S-adenosylhomocysteine (SAH), bicine, Tween20, dimethylsulfoxide (DMSO), bovine skin gelatin (BSG), and Tris(2-carboxyethyl)phosphine hydrochloride solution (TCEP) were purchased from Sigma-Aldrich at the highest level of purity possible. ^3H-SAM was purchase from American Radiolabeled Chemicals with a specific activity of 80 Ci/mmol. 384-well streptavidin Flashplates were purchased from PerkinElmer.
Recombinant baculovirus were generated according to Bac-to-Bac kit instructions (Life Technologies). […] Infections were carried out at 27° C. for 48 hours, harvested by centrifugation, and stored at −80° C. for purification.
GST-tagged PRMT1 was eluted with 50 mM Tris, 2 mM glutathione, pH 7.8, dialysed in buffer A and concentrated to 1 mg/mL.
General Procedure for PRMT1 Enzyme Assays on Peptide Substrates.
(§1) The assays were all performed in a buffer consisting of 20 mM Bicine (pH=7.6), 1 mM TCEP, 0.005% BSG, and 0.002% Tween 20, prepared on the day of use. […] DMSO (1 ul) was added to Columns 11, 12, 23, 24, rows A-H for the maximum signal control and 1 ul of SAH, a known product and inhibitor of PRMT1, was added to columns 11, 12, 23, 24, rows I-P for the minimum signal control. A cocktail (40 ul) containing the PRMT1 enzyme was added by Multidrop Combi (Thermo-Fisher). The compounds were allowed to incubate with PRMT1 for 30 min at room temperature, then a cocktail (10 ul) containing SAM and peptide was added to initiate the reaction (final volume=51 ul). […] The assays were stopped by the addition of non-radiolabeled SAM (10 ul) to a final concentration of 300 uM, which dilutes the ^3H-SAM to a level where its incorporation into the peptide substrate is no longer detectable. 50 ul of the reaction in the 384-well polypropylene plate was then transferred to a 384-well Flashplate and the biotinylated peptides were allowed to bind to the streptavidin surface for at least 1 hour before being washed once with 0.1% Tween20 in a Biotek ELx405 plate washer. The plates were then read in a PerkinElmer TopCount plate reader to measure the quantity of ^3H-labeled peptide bound to the Flashplate surface, measured as disintegrations per minute (dpm) or alternatively, referred to as counts per minute (cpm).
(§2) Where dpm=disintegrations per minute, cmpd=signal in assay well, and min and max are the respective minimum and maximum signal controls.
(§3) Where top and bottom are the normally allowed to float, but may be fixed at 100 or 0 respectively in a 3-parameter fit. The Hill Coefficient normally allowed to float but may also be fixed at 1 in a 3-parameter fit. Y is the % inhibition and X is the compound concentration.

The next assay deals with T2, human PRMT6 (Homo sapiens, UniProt Q96LA8).
T2 construct: Flag-PRMT6-His; made in house; host or cells: HEK 293F cells (BacMam baculovirus)
T2 sequence (Q96LA8 with tags, fused parts or gaps): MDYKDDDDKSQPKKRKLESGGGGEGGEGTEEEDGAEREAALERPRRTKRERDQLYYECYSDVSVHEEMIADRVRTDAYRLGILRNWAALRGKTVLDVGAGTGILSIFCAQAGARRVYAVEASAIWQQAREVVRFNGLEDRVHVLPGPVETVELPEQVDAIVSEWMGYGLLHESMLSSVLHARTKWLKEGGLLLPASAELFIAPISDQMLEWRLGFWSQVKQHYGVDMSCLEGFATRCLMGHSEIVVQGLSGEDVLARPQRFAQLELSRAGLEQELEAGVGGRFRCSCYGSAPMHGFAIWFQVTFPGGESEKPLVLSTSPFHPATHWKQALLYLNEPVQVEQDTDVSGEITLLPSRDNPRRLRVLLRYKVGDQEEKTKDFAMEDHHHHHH
As to the kind of experiment: PRMT6 Biochemical Assay (3H-SAM Flashplate, peptide substrate). The following applies: Biochemical IC50 PRMT6, single experiment or average of multiple experiments.
Excerpt: S-adenosylmethionine (SAM), S-adenosylhomocysteine (SAH), bicine, Tween20, dimethylsulfoxide (DMSO), bovine skin gelatin (BSG), sodium butyrate and Tris(2-carboxyethyl)phosphine hydrochloride solution (TCEP) were purchased from Sigma-Aldrich at the highest level of purity possible. ^3H-SAM was purchase from American Radiolabeled Chemicals with a specific activity of 80 Ci/mmol. 384-well streptavidin Flashplates were purchased from PerkinElmer.
Peptide representative of human histone H4 residues 36-50 was synthesized with an N-terminal linker-affinity tag motif and a C-terminal amide cap by 21st Century Biochemicals.
The amplified gene was subcloned into pFastBacMam (Viva Biotech).
Recombinant baculovirus were generated according to Bac-to-Bac kit instructions (Life Technologies). […] Infections were carried out at 37° C. for 48 hours, harvested by centrifugation, and stored at −80° C. for purification.
Column was washed with 20 mM imidazole in the same buffer and Flag-PRMT6-His was eluted with 150 mM imidazole. […] Flag-PRMT6-His was eluted with 200 ug/ml FLAG peptide in the same buffer. Pooled fractions were dialysed in 20 mM Tris, 150 mM NaCl, 10% glycerol and 5 mM β-mercaptoethanol, pH 7.8.
General Procedure for PRMT6 Enzyme Assays on Peptide Substrates.
as §1, with “PRMT6,” for “PRMT1,”, “PRMT6” for “PRMT1”, “400” for “300”
as §2, §3

T1 sequence (Q99873 with tags, fused parts or gaps): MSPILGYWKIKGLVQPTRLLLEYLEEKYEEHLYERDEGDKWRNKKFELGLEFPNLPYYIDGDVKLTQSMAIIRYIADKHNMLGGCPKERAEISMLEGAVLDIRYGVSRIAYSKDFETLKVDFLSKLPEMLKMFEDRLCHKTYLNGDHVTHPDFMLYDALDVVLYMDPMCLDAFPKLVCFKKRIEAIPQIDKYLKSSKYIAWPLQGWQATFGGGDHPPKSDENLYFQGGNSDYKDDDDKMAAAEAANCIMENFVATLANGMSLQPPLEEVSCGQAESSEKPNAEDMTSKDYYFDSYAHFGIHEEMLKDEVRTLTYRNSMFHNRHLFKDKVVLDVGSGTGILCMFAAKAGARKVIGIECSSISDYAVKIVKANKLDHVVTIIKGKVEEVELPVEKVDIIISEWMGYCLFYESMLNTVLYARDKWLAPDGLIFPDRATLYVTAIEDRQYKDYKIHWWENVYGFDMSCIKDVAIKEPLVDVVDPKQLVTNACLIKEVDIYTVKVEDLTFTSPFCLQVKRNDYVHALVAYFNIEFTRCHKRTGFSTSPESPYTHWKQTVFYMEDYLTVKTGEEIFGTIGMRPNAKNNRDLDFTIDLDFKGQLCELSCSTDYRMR

As for `COCCn1ncc(CN(C)CCN)c1-c1ccc(F)cc1` [Compound 6], the half-maximal inhibitory concentration (IC50) amounted to 3460 nM against human PRMT1 and 312 nM against human PRMT6.

`CCn1ncc(CN(C)CCNC)c1-c1ccc(F)cc1` [Compound 7]: the concentration for half-maximal inhibition (IC50) came to 265 nM on human PRMT1 and 38.3 nM on human PRMT6.

`CCn1cc(CN(C)CCNC)c(-c2ccc(F)cc2)n1` [Compound 8]: the values for the IC50 on human PRMT1 and at human PRMT6 were 1180 nM and 287 nM, respectively.

Consider `CN(CCN)Cc1c[nH]nc1-c1ccc(OCC(F)(F)F)cc1` [Compound 96], for which the results for the half-inhibitory concentration (IC50) against human PRMT1 and against human PRMT6 were 4.41 nM and 7.09 nM, respectively.

Take `CC(C)Oc1ccc(-c2n[nH]cc2CN(C)CCN)cc1F` [Compound 97]: the half-inhibitory concentration (IC50) on human PRMT1 turned out to be 2.6 nM; against human PRMT6, 7.35 nM.

Turning to `CN(CCN)Cc1c[nH]nc1-c1ccc(C2CCOCC2)cc1` [Compound 98], the values for the IC50 at human PRMT1 and against human PRMT6 were 5.84 nM and 15.4 nM, respectively.

Consider `CN(CCN)Cc1c[nH]nc1-c1ccc(F)cc1F` [Compound 99], for which the concentration for half-maximal inhibition (IC50) against human PRMT1 worked out at 90.2 nM; at human PRMT6, 27.9 nM.

Take `CN(CCN)Cc1n[nH]cc1-c1ccc(C#N)cc1` [Compound 100]: the IC50 is 12 nM against human PRMT1 and 11.2 nM against human PRMT6.

In the case of `CC(C)c1ccc(-c2c[nH]nc2CN(C)CCN)cc1` [Compound 101], the half-inhibitory concentration (IC50) on human PRMT1 was determined as 20.3 nM; against human PRMT6, 136 nM.

Regarding `CN(CCN)Cc1n[nH]cc1-c1ccc(Cl)cc1` [Compound 102], the figures for the IC50 against human PRMT1 and against human PRMT6 were 11.3 nM and 9.02 nM, respectively.

On to `CN(CCN)Cc1n[nH]cc1-c1ccc(C(F)(F)F)cc1` [Compound 103], for which the results for the IC50 at human PRMT1 and at human PRMT6 were 10.2 nM and 17 nM, respectively.

Take `CN(CCN)Cc1n[nH]cc1-c1ccc(C2CC2)cc1` [Compound 104]: the IC50 against human PRMT1 is 15.7 nM; on human PRMT6, 45.3 nM.

Regarding `CN(CCN)Cc1n[nH]cc1-c1ccc(OC(F)(F)F)cc1` [Compound 105], the half-inhibitory concentration (IC50) on human PRMT1 was 8.85 nM; at human PRMT6, 55.6 nM.

As for `COc1ccc(-c2n[nH]cc2CN(C)CCN)c(F)c1` [Compound 107], the concentration for half-maximal inhibition (IC50) against human PRMT1 turned out to be 44.1 nM; at human PRMT6 it was 15 nM.

In the case of `Cc1ccc(-c2n[nH]cc2CN(C)CCN)c(F)c1` [Compound 108], the IC50 against human PRMT1 stood at 31.3 nM; at human PRMT6 it was 9.49 nM.

Regarding `COc1ccccc1-c1n[nH]cc1CN(C)CCN` [Compound 109], the IC50 against human PRMT1 was 244 nM; against human PRMT6, 217 nM.

With `Cc1cc(C#N)ccc1-c1n[nH]cc1CN(C)CCN` [Compound 110], the 50% inhibitory concentration (IC50) worked out at 21.6 nM on human PRMT1 and 16.5 nM against human PRMT6.

As for `CN(CCN)Cc1c[nH]nc1-c1cc(F)cc(F)c1` [Compound 111], the half-inhibitory concentration (IC50) at human PRMT1 was found to be 18.9 nM; at human PRMT6 it was 11.8 nM.

As for `CC(=O)c1cccc(-c2n[nH]cc2CN(C)CCN)c1` [Compound 112], the 50% inhibitory concentration (IC50) was 81 nM against human PRMT1 and 84.7 nM against human PRMT6.

On to `CN(CCN)Cc1c[nH]nc1-c1ccc(OC2CC2)cc1` [Compound 114], for which the IC50 was 5.75 nM against human PRMT1 and 16.2 nM against human PRMT6.

On to `CC(O)c1ccc(-c2n[nH]cc2CN(C)CCN)cc1` (centres unmarked) [Compound 115], for which the IC50 stood at 46 nM against human PRMT1 and 25.4 nM at human PRMT6.

On to `CN(CCN)Cc1c[nH]nc1-c1ccc(C2CC2)cc1` [Compound 116], for which the IC50 on human PRMT1 was 4.84 nM; on human PRMT6 it was 7.3 nM.

For `CN(CCN)Cc1c[nH]nc1-c1ccc(C(F)(F)F)c(Cl)c1` [Compound 117], the results for the IC50 against human PRMT1 and against human PRMT6 were 5.76 nM and 4.87 nM, respectively.

Take `CN(CCN)Cc1c[nH]nc1-c1ccc(Cl)c(F)c1` [Compound 118]: the IC50 against human PRMT1 was 2.94 nM; against human PRMT6 it was 3.18 nM.

Regarding `CN(CCN)Cc1n[nH]cc1-c1ccc(OC2CC2)cc1` [Compound 119], the half-maximal inhibitory concentration (IC50) is 16.2 nM against human PRMT1 and 88 nM on human PRMT6.

As to `CN(CCN)Cc1c[nH]nc1-c1cc(F)cc(Cl)c1` [Compound 121], the concentration for half-maximal inhibition (IC50) against human PRMT1 came to 10.7 nM; at human PRMT6, 7.48 nM.

As to `CN(CCN)Cc1c[nH]nc1-c1cccc(Cl)c1` [Compound 122], the IC50 amounted to 24.3 nM against human PRMT1 and 8.99 nM against human PRMT6.

As for `CN(CCN)Cc1c[nH]nc1-c1cccc(Cl)c1F` [Compound 123], the IC50 against human PRMT1 came to 43.9 nM; at human PRMT6 it was 17.1 nM.

As to `CN(CCN)Cc1c[nH]nc1-c1ccc(F)c(Cl)c1` [Compound 124], the IC50 at human PRMT1 was found to be 13.7 nM; on human PRMT6 it was 7.15 nM.

As to `COc1ccc(-c2n[nH]cc2CN(C)CCN)cc1Cl` [Compound 125], the IC50 against human PRMT1 was found to be 8.38 nM; against human PRMT6 it was 6.65 nM.

For the molecule `Cc1ccc(-c2n[nH]cc2CN(C)CCN)cc1Cl` [Compound 126], the IC50 stood at 6.81 nM against human PRMT1 and 4.94 nM against human PRMT6.

Consider `COc1cc(Cl)cc(-c2n[nH]cc2CN(C)CCN)c1` [Compound 127], for which the concentration for half-maximal inhibition (IC50) came to 46.1 nM on human PRMT1 and 14.1 nM against human PRMT6.

Regarding `Cc1c(F)cccc1-c1n[nH]cc1CN(C)CCN` [Compound 129], the figures for the IC50 against human PRMT1 and on human PRMT6 were 121 nM and 52.8 nM, respectively.

As for `COc1cccc(-c2n[nH]cc2CN(C)CCN)c1` [Compound 130], the IC50 on human PRMT1 amounted to 135 nM; at human PRMT6, 63.4 nM.

On to `Cc1cccc(-c2n[nH]cc2CN(C)CCN)c1` [Compound 131], for which the IC50 against human PRMT1 came to 29.6 nM; at human PRMT6, 12.1 nM.

In the case of `CN(CCN)Cc1c[nH]nc1-c1ccc(Cl)cc1F` [Compound 132], the IC50 turned out to be 23.9 nM against human PRMT1 and 9.91 nM at human PRMT6.

`Cc1cc(Cl)ccc1-c1n[nH]cc1CN(C)CCN` [Compound 133]: the half-maximal inhibitory concentration (IC50) worked out at 24.8 nM at human PRMT1 and 10.1 nM on human PRMT6.

As for `COc1ccc(-c2n[nH]cc2CN(C)CCN)cc1F` [Compound 134], the half-inhibitory concentration (IC50) at human PRMT1 and against human PRMT6 was 10.8 nM each time.

Consider `CN(CCN)Cc1c[nH]nc1-c1ccc(C(F)(F)F)cc1Cl` [Compound 135], for which the half-inhibitory concentration (IC50) is 48.1 nM on human PRMT1 and 28.9 nM at human PRMT6.

For the molecule `CCNC(=O)c1ccc(-c2n[nH]cc2CN(C)CCN)cc1` [Compound 136], the values for the half-inhibitory concentration (IC50) at human PRMT1 and at human PRMT6 were 27.5 nM and 12.8 nM, respectively.

Consider `CN(CCN)Cc1c[nH]nc1-c1cc(Cl)cc(Cl)c1` [Compound 137], for which the half-inhibitory concentration (IC50) came out at 19.2 nM on human PRMT1 and 8.42 nM against human PRMT6.

`CN(CCN)Cc1n[nH]cc1-c1ccc(OC(F)F)cc1` [Compound 138]: the IC50 against human PRMT1 came to 21.2 nM; against human PRMT6 it was 44.5 nM.

As to `CN(CCN)Cc1c[nH]nc1-c1ccccc1C#N` [Compound 140], the IC50 against human PRMT1 was 399 nM; against human PRMT6, 3010 nM.

(Values after patent publication US9776972B2, “Pyrazole derivatives as arginine methyltransferase inhibitors and uses thereof” (priority 2013, dated 2017).)
